Experimental data published in patent US12378249B2, “Isoquinoline compounds and uses thereof” (Genentech, Inc., priority 2018, dated 2025).

The compounds below were run against HPK1 (Homo sapiens (Human), UniProt Q92918, S171E/T165E) (assay: HPK1-FL HTRF Enzymatic Assay (HTRF)). Conditions: HPK full length T165E S171E 0.125 nM, ATP 1 mM, Biotin-SLP76 100 nM, read-out: HPK1 Ki (nM), H = HTRF.
Format: biochemical
Protocol: Exemplary compounds of Formula (I) were tested to assess compound inhibition of HPK-1. The Ki for each exemplary compound was determined
Example B1: HPK1-FL HTRF Enzymatic Assay (“HTRF”)
HPK-FL enzyme phosphorylates Biotin-SLP-76 substrate in the presence of ATP at 1 mM and varying concentrations of test compound. Product is detected by FRET using Eu-anti-pSLP76 Ab and SA-XL665. Also see www.cisbio.com/HTRF for additional HTRF technology information.
• Echo555 compound dispenser • Agilent Bravo • Perkin Elmer Envision Final Assay Conditions:
Materials: • Assay plate: White ProxiPlate 384 F (PerkinElmer cat #6008289) • Kinase: HPK full length double mutant • Substrate: Biotin-SLP76 • ATP: 100 mM ATP • BSG: 2% BSG • DMSO: DMSO (Sigma cat #34869-100ML) • Reaction Buffer: H2O/50 mM HEPES, pH 7.5/10 mM MgCl2/2 mM TCEP/0.01% Brij-35/0.01% BSG • Detection mix:Eu-anti-pSLP76/SA-XL665 (Cisbio, #610SAXAC) Assay Procedure Ki determination:
To a 384 well Proxiplate with 80 nL compound or DMSO spotted on was added 4 μl/well kinase mix. The mixture was preincubated for 30 minutes and then 4 μl/well substrate mix was added. The solution was incubated for 60 min and then 4 μl/well detection mix was added. The solution was incubated for another 60 min. The plates were then loaded onto a Perkin Elmer Envision and the TR-FRET signal was measured at 615 and 665 nm. A ratio of […] was used to calculate the % activity at each concentration of compound.

Chain of HPK1 (Q92918 whole entry T165E/S171E): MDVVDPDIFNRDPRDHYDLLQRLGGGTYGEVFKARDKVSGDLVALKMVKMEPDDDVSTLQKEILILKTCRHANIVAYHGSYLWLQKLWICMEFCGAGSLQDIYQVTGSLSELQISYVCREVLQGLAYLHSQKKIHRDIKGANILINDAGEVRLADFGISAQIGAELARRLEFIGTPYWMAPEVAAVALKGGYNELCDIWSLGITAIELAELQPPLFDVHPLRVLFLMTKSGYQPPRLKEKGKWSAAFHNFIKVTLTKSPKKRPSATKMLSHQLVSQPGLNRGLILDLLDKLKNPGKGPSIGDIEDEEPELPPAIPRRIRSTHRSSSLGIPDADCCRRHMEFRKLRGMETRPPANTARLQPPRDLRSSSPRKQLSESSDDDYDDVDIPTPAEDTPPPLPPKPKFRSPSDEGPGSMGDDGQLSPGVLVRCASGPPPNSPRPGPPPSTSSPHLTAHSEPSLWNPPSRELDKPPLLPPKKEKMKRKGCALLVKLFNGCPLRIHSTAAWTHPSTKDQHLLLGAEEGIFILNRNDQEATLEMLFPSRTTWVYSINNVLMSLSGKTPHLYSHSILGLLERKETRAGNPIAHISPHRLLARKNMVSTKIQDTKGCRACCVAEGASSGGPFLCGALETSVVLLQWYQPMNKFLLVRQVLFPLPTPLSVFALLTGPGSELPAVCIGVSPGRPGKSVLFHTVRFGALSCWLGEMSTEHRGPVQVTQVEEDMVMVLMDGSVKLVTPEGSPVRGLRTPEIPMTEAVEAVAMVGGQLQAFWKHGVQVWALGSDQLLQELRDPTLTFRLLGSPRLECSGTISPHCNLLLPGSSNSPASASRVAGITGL

Row | Ki [nM] | Compound
1 | 4.6 | Cc1ccncc1-c1cc2cc(Nc3cc4n(n3)CC(=O)N(C)CC4)ncc2c(Cl)c1F [Compound 110, 2-[[8-Chloro-7-fluoro-6-(4-methylpyridin-3-yl)isoquinolin-3-yl]amino]-6-methyl-4H,5H,6H,7H,8H-pyrazolo[1,5-d][1,4]diazepin-7-one]
2 | 0.01 | Cc1c(N)cncc1-c1cc2cc(Nc3cc4n(n3)CC(=O)N(C)CC43CC3)ncc2cc1F [Compound 111, 2-[[6-(5-amino-4-methyl-3-pyridyl)-7-fluoro-3-isoquinolyl]amino]-6-methyl-spiro[5,8-dihydropyrazolo[1,5-d][1,4]diazepine-4,1′-cyclopropane]-7-one]
3 | 1.2 | Cc1c(N)cncc1-c1cc2cc(Nc3cc4n(n3)CS(=O)(=O)N(C)CC4C)ncc2cc1F (stereo not drawn) [Compound 113, 2-((6-(5-amino-4-methylpyridin-3-yl)-7-fluoroisoquinolin-3-yl)amino)-4,6-dimethyl-5,6-dihydro-4H,8H-pyrazolo[5,1-e][1,2,6]thiadiazepine 7,7-dioxide]
4 | 75 | Cc1ccncc1-c1cc2cc(Nc3cn4c(n3)CC(=O)N(C)CC4)ncc2c(Cl)c1F [Compound 114, 2-((8-chloro-7-fluoro-6-(4-methylpyridin-3-yl)isoquinolin-3-yl)amino)-7-methyl-6,7-dihydro-5H-imidazo[1,2-d][1,4]diazepin-8(9H)-one]
5 | 0.2 | Cc1c(-c2cc3cc(Nc4cc5n(n4)CC(=O)N(C(C)C)CC5)ncc3c(Cl)c2F)cnc2c1NCCO2 [Compound 115, 2-((8-chloro-7-fluoro-6-(8-methyl-2,3-dihydro-1H-pyrido[2,3-b][1,4]oxazin-7-yl)isoquinolin-3-yl)amino)-6-isopropyl-5,6-dihydro-4H-pyrazolo[1,5-d][1,4]diazepin-7(8H)-one]
6 | 0.014 | Cc1c(-c2cc3cc(Nc4cc5n(n4)CC(=O)N(C(C)C)CC5)ncc3cc2F)cnc2c1NCCO2 [Compound 116, 2-((7-fluoro-6-(8-methyl-2,3-dihydro-1H-pyrido[2,3-b][1,4]oxazin-7-yl)isoquinolin-3-yl)amino)-6-isopropyl-5,6-dihydro-4H-pyrazolo[1,5-d][1,4]diazepin-7(8H)-one]
7 | 0.64 | Cc1c(N)cncc1-c1cc(Cl)c2cnc(Nc3cc4n(n3)CC(=O)N(C(C)C)CC4)cc2c1 [Compound 117, 2-((6-(5-amino-4-methylpyridin-3-yl)-8-chloroisoquinolin-3-yl)amino)-6-isopropyl-5,6-dihydro-4H-pyrazolo[1,5-d][1,4]diazepin-7(8H)-one]
8 | 0.04 | Cc1c(N)cncc1-c1cc2cc(Nc3cc4n(n3)CC(=O)N(C)C(C)(C)C4)ncc2cc1F [Compound 120, 2-((6-(5-amino-4-methylpyridin-3-yl)-7-fluoroisoquinolin-3-yl)amino)-5,5,6-trimethyl-5,6-dihydro-4H-pyrazolo[1,5-d][1,4]diazepin-7(8H)-one]
9 | 0.08 | Cc1c(N)cncc1-c1cc2cc(Nc3cc4n(n3)CC(=O)N(C(C)C)CC4)ncc2c(C)c1F [Compound 121, 2-((6-(5-amino-4-methylpyridin-3-yl)-7-fluoro-8-methylisoquinolin-3-yl)amino)-6-isopropyl-5,6-dihydro-4H-pyrazolo[1,5-d][1,4]diazepin-7(8H)-one]
10 | 1 | Cc1ccncc1-c1ccc2cnc(Nc3cc4n(n3)CC(=O)N(C(C)C)CC4)cc2c1 [Compound 122, 6-isopropyl-2-[[6-(4-methyl-3-pyridyl)-3-isoquinolyl]amino]-5,8-dihydro-4H-pyrazolo[1,5-d][1,4]diazepin-7-one]
11 | 0.11 | Cc1c(-c2cc3cc(Nc4cc5n(n4)CC(=O)N(C(C)C)CC5)ncc3cc2F)cnc2c1NC(=O)CO2 [Compound 123, 7-[7-fluoro-3-[(6-isopropyl-7-oxo-5,8-dihydro-4H-pyrazolo[1,5-d][1,4]diazepin-2-yl)amino]-6-isoquinolyl]-8-methyl-1H-pyrido[2,3-b][1,4]oxazin-2-one]
12 | 63 | CC(C)N1CCc2cc(Nc3cc4cc(C(=O)N5CCN(C)CC5)c(F)cc4cn3)nn2CC1=O [Compound 124, 2-((7-fluoro-6-(4-methylpiperazine-1-carbonyl)isoquinolin-3-yl)amino)-6-isopropyl-5,6-dihydro-4H-pyrazolo[1,5-d][1,4]diazepin-7(8H)-one]
13 | 0.03 | Cc1c(N)cncc1-c1cc2cc(Nc3cc4n(n3)Cc3nccn3CC4)ncc2cc1F [Compound 125, N-(6-(5-amino-4-methylpyridin-3-yl)-7-fluoroisoquinolin-3-yl)-5,6-dihydro-11H-imidazo[1,2-a]pyrazolo[1,5-d][1,4]diazepin-8-amine]
14 | 0.148 | Cc1ncc(-c2cc3cc(Nc4cc5n(n4)CC(=O)N(C(C)C)CC5)ncc3cc2F)c(C)c1N [Compound 126, 2-((6-(5-amino-4,6-dimethylpyridin-3-yl)-7-fluoroisoquinolin-3-yl)amino)-6-isopropyl-5,6-dihydro-4H-pyrazolo[1,5-d][1,4]diazepin-7(8H)-one]
15 | 0.04 | Cc1c(N)cncc1-c1cc2cc(Nc3cc4n(n3)CC(=O)N(C)CC4(F)F)ncc2cc1F [Compound 127, 2-[[6-(5-amino-4-methyl-3-pyridyl)-7-fluoro-3-isoquinolyl]amino]-4,4-difluoro-6-methyl-5,8-dihydropyrazolo[1,5-d][1,4]diazepin-7-one]
16 | 0.04 | Cc1c(N)cncc1-c1ccc2cnc(Nc3cc4n(n3)CC(=O)N(C(C)C)CC4)cc2c1 [Compound 129, 2-[[6-(5-amino-4-methyl-3-pyridyl)-3-isoquinolyl]amino]-6-isopropyl-5,8-dihydro-4H-pyrazolo[1,5-d][1,4]diazepin-7-one]
17 | 2.5 | Cc1ccncc1-c1cc2cc(Nc3cc4n(n3)CC(=O)N(C(C)C)CC4)ncc2cc1F [Compound 131, 2-[[7-fluoro-6-(4-methyl-3-pyridyl)-3-isoquinolyl]amino]-6-isopropyl-5,8-dihydro-4H-pyrazolo[1,5-d][1,4]diazepin-7-one]
18 | 0.02 | Cc1c(-c2cc3cc(Nc4cc5n(n4)CC(=O)N(CCN4CCOCC4)CC5)ncc3cc2F)cnc2c1NCCO2 [Compound 132, 2-[[7-fluoro-6-(8-methyl-2,3-dihydro-1H-pyrido[2,3-b][1,4]oxazin-7-yl)-3-isoquinolyl]amino]-6-(2-morpholinoethyl)-5,8-dihydro-4H-pyrazolo[1,5-d][1,4]diazepin-7-one]
19 | 3.7 | Cc1ncc(-c2cc3cc(Nc4cc5n(n4)CC(=O)N(C(C)C)CC5)ncc3c(O)c2F)c(C)c1N [Compound 133, 2-((6-(5-amino-4,6-dimethylpyridin-3-yl)-7-fluoro-8-hydroxyisoquinolin-3-yl)amino)-6-isopropyl-5,6-dihydro-4H-pyrazolo[1,5-d][1,4]diazepin-7(8H)-one]
20 | 3.4 | Cc1ccncc1-c1cc2cc(Nc3cc4n(n3)CC3=NOC(C)(C)N3CC4)ncc2cc1F [Compound 134, N-(7-fluoro-6-(4-methylpyridin-3-yl)isoquinolin-3-yl)-3,3-dimethyl-5,6-dihydro-3H,11H-[1,2,4]oxadiazolo[4,3-a]pyrazolo[1,5-d][1,4]diazepin-8-amine]
21 | 0.038 | Cc1c(-c2cc3cc(Nc4cc5n(n4)CC(=O)N(C(C)C)CC5)ncc3c(F)c2F)cnc2c1NCCO2 [Compound 135, 2-((7,8-difluoro-6-(8-methyl-2,3-dihydro-1H-pyrido[2,3-b][1,4]oxazin-7-yl)isoquinolin-3-yl)amino)-6-isopropyl-5,6-dihydro-4H-pyrazolo[1,5-d][1,4]diazepin-7(8H)-one]
